# Laboratory results as given in publication PMC11211886 (Frontiers in Pharmacology, 2024).
# Tests used:
# [1] = target: T1, OAT1 (Homo sapiens, UniProt Q4U2R8); experiment: in vitro
# T1 sequence (Q4U2R8 1-563): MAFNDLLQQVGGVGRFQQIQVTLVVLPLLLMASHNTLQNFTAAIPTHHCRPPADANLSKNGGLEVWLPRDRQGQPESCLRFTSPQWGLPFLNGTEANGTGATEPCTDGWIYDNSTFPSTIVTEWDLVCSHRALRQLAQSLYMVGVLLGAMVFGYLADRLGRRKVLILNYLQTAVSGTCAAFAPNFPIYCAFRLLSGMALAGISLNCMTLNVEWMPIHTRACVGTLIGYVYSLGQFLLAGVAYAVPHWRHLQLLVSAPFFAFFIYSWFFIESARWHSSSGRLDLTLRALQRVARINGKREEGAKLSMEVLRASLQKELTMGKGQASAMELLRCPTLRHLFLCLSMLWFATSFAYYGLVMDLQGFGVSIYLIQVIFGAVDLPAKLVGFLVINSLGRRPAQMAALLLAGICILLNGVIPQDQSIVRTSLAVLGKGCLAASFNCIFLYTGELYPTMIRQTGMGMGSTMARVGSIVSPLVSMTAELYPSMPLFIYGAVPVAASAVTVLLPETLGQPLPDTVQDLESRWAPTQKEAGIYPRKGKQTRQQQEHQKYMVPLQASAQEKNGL
# Procedure: (§1) The pre-incubation solutions were removed, and incubation solutions containing the inhibitors and probe substrates (or transport buffer containing an equal volume of vehicle control and probe substrates) were added and incubated at 37°C for 2 min (5 min for OATP1B3). The probe substrate for OAT1 was 4-aminohippuric acid (10 μM), for OAT3 was estrone 3-sulfate (10 μM), for OCT2 was metformin (100 μM), for OATP1B1 was β-estradiol 17-(β-D-glucuronide) (5 μM), for OATP1B3 was β-estradiol 17-(β-D-glucuronide) (10 μM), and for MATE1 and MATE2-K was tetraethylammonium (10 μM). After incubation, cells were washed three times with ice-cold transport buffer (25 mM HEPES, pH 7.4, pH 8.0 for overexpressing MATE1 and MATE2-K HEK293 cells) and lysed in distilled water. The concentrations of probe substrates were determined by LC-MS/MS, and a BCA Kit (Solarbio ®Life Sciences, Beijing, China) was used to determine the protein content in the cell lysate.
# (§2) where C is the concentration of the drug in the cell lysate (nM), P is the protein concentration of the cell lysate (mg/mL), and T is the incubation time (minute). Uptake ratetest compound is the uptake rate of the substrate in the presence of the test compound. Uptake ratevehicle control is the uptake rate of the substrate in the presence of the vehicle control. Uptake ratepassive is the uptake rate of the substrate in the presence of the positive inhibitor at the top test concentration.
# [2] = target: T2, OATP1B3 (Homo sapiens, UniProt Q9NPD5); experiment: OATP1B3 inhibition, β-estradiol 17-(β-D-glucuronide) uptake in transfected HEK293 cells
# T2 sequence (Q9NPD5 1-702): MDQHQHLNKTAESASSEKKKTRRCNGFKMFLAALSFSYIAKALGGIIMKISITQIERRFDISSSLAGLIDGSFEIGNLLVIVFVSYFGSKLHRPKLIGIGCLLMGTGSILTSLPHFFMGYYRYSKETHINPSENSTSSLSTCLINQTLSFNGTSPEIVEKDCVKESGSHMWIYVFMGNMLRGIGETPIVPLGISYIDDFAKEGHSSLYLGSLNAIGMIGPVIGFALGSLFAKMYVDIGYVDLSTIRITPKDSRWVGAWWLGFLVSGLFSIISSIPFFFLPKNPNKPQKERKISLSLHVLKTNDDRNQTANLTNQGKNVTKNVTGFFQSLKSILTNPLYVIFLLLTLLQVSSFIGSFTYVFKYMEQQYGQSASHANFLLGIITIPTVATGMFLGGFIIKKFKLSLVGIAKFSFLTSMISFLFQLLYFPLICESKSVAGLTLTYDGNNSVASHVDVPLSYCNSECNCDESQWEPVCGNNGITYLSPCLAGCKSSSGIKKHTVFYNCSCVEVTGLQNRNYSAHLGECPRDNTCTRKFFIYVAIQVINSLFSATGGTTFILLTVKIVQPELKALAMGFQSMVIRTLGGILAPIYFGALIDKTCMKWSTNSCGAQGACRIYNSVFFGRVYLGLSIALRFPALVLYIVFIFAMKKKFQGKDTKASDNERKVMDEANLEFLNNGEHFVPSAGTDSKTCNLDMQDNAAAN
# Procedure: as §1, §2
smiles,measurement,setting,value
C[C@H](Nc1ncnc(N)c1C#N)c1cc2ncc(Cl)n2nc1-c1ccccc1 [Amdizalisib],IC50,[1],4.14 µM
same,Percentage transported,"[1]; OAT1, compound 0.3 μM",96.4%
same,Uptake rate,"[1]; OAT1, compound 0.3 μM",489±79.6 pmol/mg protein/min
same,Percentage transported,"[1]; OAT1, compound 1 μM",91.6%
same,Uptake rate,"[1]; OAT1, compound 1 μM",467±34.8 pmol/mg protein/min
same,Percentage transported,"[1]; OAT1, compound 3 μM",50.9%
same,Uptake rate,"[1]; OAT1, compound 3 μM",278±37.1 pmol/mg protein/min
same,Percentage transported,"[1]; OAT1, compound 10 μM",33.3%
same,Uptake rate,"[1]; OAT1, compound 10 μM",196±6.18 pmol/mg protein/min
same,Percentage transported,"[1]; OAT1, compound 30 μM",7.47%
same,Uptake rate,"[1]; OAT1, compound 30 μM",76.5±17.7 pmol/mg protein/min
same,Percentage transported,"[1]; OAT1, compound 100 μM",-7.21%
same,Uptake rate,"[1]; OAT1, compound 100 μM",8.38±1.24 pmol/mg protein/min
same,"inhibition at 2 min, 0.3 µM","[1]; human, pH 7.4",3.65%
same,"inhibition at 2 min, 1 µM","[1]; human, pH 7.4",8.44%
same,"inhibition at 2 min, 3 µM","[1]; human, pH 7.4",49.1%
same,"inhibition at 2 min, 10 µM","[1]; human, pH 7.4",66.7%
same,"inhibition at 2 min, 30 µM","[1]; human, pH 7.4",92.5%
same,"inhibition at 2 min, 100 µM","[1]; human, pH 7.4",107%
same,calculated R value (OAT1),[1]; renal OATs,< 1.1
same,IC50,[2],5.03 µM
same,Percentage transported,"[2]; human, 5 min, 0.3 μM, pH 7.4",94.5%
same,Uptake rate,"[2]; human, 5 min, 0.3 μM, pH 7.4",62.4±5.58 pmol/mg protein/min
same,Percentage transported,"[2]; human, 5 min, 1 μM, pH 7.4",89.2%
same,Uptake rate,"[2]; human, 5 min, 1 μM, pH 7.4",59.1±6.36 pmol/mg protein/min
same,Percentage transported,"[2]; human, 5 min, 3 μM, pH 7.4",68.1%
same,Uptake rate,"[2]; human, 5 min, 3 μM, pH 7.4",46.2±10.1 pmol/mg protein/min
same,Percentage transported,"[2]; human, 5 min, 10 μM, pH 7.4",29.3%
same,Uptake rate,"[2]; human, 5 min, 10 μM, pH 7.4",22.4±1.00 pmol/mg protein/min
same,Percentage transported,"[2]; human, 5 min, 30 μM, pH 7.4",3.82%
same,Uptake rate,"[2]; human, 5 min, 30 μM, pH 7.4",6.76±0.372 pmol/mg protein/min
same,Percentage transported,"[2]; human, 5 min, 100 μM, pH 7.4",-4.02%
same,Uptake rate,"[2]; human, 5 min, 100 μM, pH 7.4",1.99±0.315 pmol/mg protein/min
same,calculated R value (OATP1B3),"[2]; human, 5 min, pH 7.4",5.1
same,"inhibition at 5 min, 0.3 µM","[2]; human, pH 7.4",5.47%
same,"inhibition at 5 min, 1 µM","[2]; human, pH 7.4",10.8%
same,"inhibition at 5 min, 3 µM","[2]; human, pH 7.4",31.9%
same,"inhibition at 5 min, 10 µM","[2]; human, pH 7.4",70.7%
same,"inhibition at 5 min, 30 µM","[2]; human, pH 7.4",96.2%
same,"inhibition at 5 min, 100 µM","[2]; human, pH 7.4",104%
